Source: patent publication US20210298306A1, “PESTICIDALLY ACTIVE AZOLE-AMIDE COMPOUNDS” (SYNGENTA PARTICIPATIONS AG, priority 2018, published 2021)

Key:
Assay type in all cases: in vivo
[1] = tested on: Plutella xylostella; assay: Example B4: Plutella xylostella (diamond back moth), artificial diet, 24-well, eggs; details: 192 h, application rate 200 ppm, 8 days after infestation, read-out: effect in at least one of the two categories (mortality or growth inhibition)
Experimental: Example B4: Plutella xylostella (Diamond Back Moth)
24-well microtiter plates with artificial diet were treated with aqueous test solutions prepared from 10,000 ppm DMSO stock solutions by pipetting. After drying, Plutella eggs were pipetted through a plastic stencil onto a gel blotting paper and the plate was closed with it. The samples were assessed for mortality and growth inhibition in comparison to untreated samples 8 days after infestation.
(§1) The following compounds gave an effect of at least 80% in at least one of the two categories (mortality or growth inhibition) at an application rate of 200 ppm: […]

[2] = tested on: Diabrotica balteata; assay: Example B1: Diabrotica balteata (corn root worm), maize sprouts sprayed, L2 larvae; details: 96 h, application rate 200 ppm, 4 days after infestation, read-out: effect in at least one of the two categories (mortality or growth inhibition)
Experimental: Example B1: Diabrotica Balteata (Corn Root Worm)
Maize sprouts placed onto an agar layer in 24-well microtiter plates were treated with aqueous test solutions prepared from 10,000 ppm DMSO stock solutions by spraying. After drying, the plates were infested with L2 larvae (6 to 10 per well). The samples were assessed for mortality and growth inhibition in comparison to untreated samples 4 days after infestation.
as §1

[3] = tested on: Myzus persicae; assay: Example B6: Myzus persicae (green peach aphid), intrinsic activity, sucrose solution, 24-well; details: 120 h, test rate 12 ppm, 5 days after infestation
Text: Example B6: Myzus persicae (Green Peach Aphid). Intrinsic Activity
Test compounds prepared from 10,000 ppm DMSO stock solutions were applied by pipette into 24-well microtiter plates and mixed with sucrose solution. The plates were closed with a stretched Parafilm. A plastic stencil with 24 holes was placed onto the plate and infested pea seedlings were placed directly on the Parafilm. The infested plate was closed with a gel blotting paper and another plastic stencil and then turned upside down. The samples were assessed for mortality 5 days after infestation.

[4] = tested on: Spodoptera littoralis; assay: Example B8: Spodoptera littoralis (Egyptian cotton leaf worm), uptake by lettuce roots from agar, eggs; details: 144 h, test rate 12.5 ppm, 6 days after infestation, lettuce root uptake, read-out: effect in at least one of the three categories (mortality, anti-feeding, or growth inhibition)
Text: Example B8: Spodoptera littoralis (Egyptian Cotton Leaf Worm)
Test compounds were applied by pipette from 10,000 ppm DMSO stock solutions into 24-well plates and mixed with agar. Lettuce seeds were placed onto the agar and the multi well plate was closed by another plate which contained also agar. After 7 days the compound was absorbed by the roots and the lettuce grew into the lid plate. The lettuce leaves were then cut off into the lid plate. Spodoptera eggs were pipetted through a plastic stencil onto a humid gel blotting paper and the lid plate was closed with it. The samples were assessed for mortality, anti-feedant effect and growth inhibition in comparison to untreated samples 6 days after infestation.
The following compounds gave an effect of at least 80% in at least one of the three categories (mortality, anti-feeding, or growth inhibition) at a test rate of 12.5 ppm: […]

[5] = tested on: Myzus persicae; assay: Example B5: Myzus persicae (green peach aphid), feeding/contact activity, sunflower leaf discs; details: foliar, 144 h, application rate 200 ppm, 6 days after infestation, Myzus persicae mixed ages
Experimental: Example B5: Myzus persicae (Green Peach Aphid):Feeding/Contact Activity
Sunflower leaf discs were placed onto agar in a 24-well microtiter plate and sprayed with aqueous test solutions prepared from 10,000 ppm DMSO stock solutions. After drying, the leaf discs were infested with an aphid population of mixed ages. The samples were assessed for mortality 6 days after infestation.

[6] = tested on: Thrips tabaci; assay: Example B9: Thrips tabaci (onion thrips), feeding/contact activity, sunflower leaf discs; details: foliar, 144 h; application rate 200 ppm; 6 days after infestation; Thrips tabaci mixed ages
Experimental: Example B9: Thrips tabaci (Onion Thrips) Feeding/Contact Activity
Sunflower leaf discs were placed on agar in 24-well microtiter plates and sprayed with aqueous test solutions prepared from 10,000 ppm DMSO stock solutions. After drying the leaf discs were infested with a thrips population of mixed ages. The samples were assessed for mortality 6 days after infestation.

[7] = tested on: Euschistus heros; assay: Example B2: Euschistus heros (neotropical brown stink bug), soybean leaves sprayed, N2 nymphs; details: 120 h, application rate 200 ppm, 5 days after infestation, read-out: effect in at least one of the two categories (mortality or growth inhibition)
Experimental: Example B2: Euschistus heros (Neotropical Brown Stink Bug)
Soybean leaves on agar in 24-well microtiter plates were sprayed with aqueous test solutions prepared from 10,000 ppm DMSO stock solutions. After drying the leaves were infested with N2 nymphs. The samples were assessed for mortality and growth inhibition in comparison to untreated samples 5 days after infestation.
as §1

[8] = tested on: Chilo suppressalis; assay: Example B3: Chilo suppressalis (striped rice stemborer), artificial diet, L2 larvae; details: 144 h, application rate 200 ppm, 6 days after infestation, read-out: control in at least one of the categories (mortality, anti-feedant effect, or growth inhibition)
Experimental: Example B3: Chilo suppressalis (Striped Rice Stemborer)
24-well microtiter plates with artificial diet were treated with aqueous test solutions prepared from 10,000 ppm DMSO stock solutions by pipetting. After drying, the plates were infested with L2 larvae (6-8 per well). The samples were assessed for mortality, anti-feeding effect, and growth inhibition in comparison to untreated samples 6 days after infestation. Control of Chilo suppressalis by a test sample is given when at least one of the categories mortality, anti-feedant effect, and growth inhibition is higher than the untreated sample.

[9] = tested on: Spodoptera littoralis; assay: Example B7: Spodoptera littoralis (Egyptian cotton leaf worm), cotton leaf discs sprayed, L1 larvae; details: foliar, 72 h, application rate 200 ppm, 3 days after infestation, read-out: control in at least one of the categories (mortality, anti-feedant effect, or growth inhibition)
Experimental: Example B7: Spodoptera littoralis (Egyptian Cotton Leaf Worm)
Cotton leaf discs were placed onto agar in 24-well microtiter plates and sprayed with aqueous test solutions prepared from 10,000 ppm DMSO stock solutions. After drying the leaf discs were infested with five L1 larvae. The samples were assessed for mortality, anti-feeding effect, and growth inhibition in comparison to untreated samples 3 days after infestation. Control of Spodoptera littoralis by a test sample is given when at least one of the categories mortality, anti-feedant effect, and growth inhibition is higher than the untreated sample.

[10] = tested on: Plutella xylostella; assay: Example B11: Plutella xylostella (diamondback moth), artificial diet, 96-well, eggs; details: 216 h, application rate 500 ppm, 9 days after infestation
Experimental: Example B11: Plutella xylostella (Diamondback Moth)
96-well microtiter plates containing artificial diet were treated with aqueous test solutions, prepared from 10,000 ppm DMSO stock solutions, by a liquid handling robot. After drying, eggs (˜30 per well) were infested onto a netted lid which was suspended above the diet. The eggs hatch and L1 larvae move down to the diet. The samples were assessed for mortality 9 days after infestation.
The following compounds gave an effect of at least 80% average mortality at an application rate of 500 ppm: […]

[11] = tested on: Myzus persicae; assay: Example B10: Myzus persicae (green peach aphid), sucrose solution, 96-well; details: 120 h, application rate 50 ppm, 5 days after infestation
Text: Example B10: Myzus persicae (Green Peach Aphid)
Test compounds prepared from 10,000 ppm DMSO stock solutions were applied by a liquid handling robot into 96-well microtiter plates and mixed with a sucrose solution. Parafilm was stretched over the 96-well microtiter plate and a plastic stencil with 96 holes was placed onto the plate. Aphids were sieved into the wells directly onto the Parafilm. The infested plates were closed with a gel blotting card and a second plastic stencil and then turned upside down. The samples were assessed for mortality 5 days after infestation.

CC(c1ncnn1-c1ncccn1)N(CC1CC1)C(=O)c1cc(OC(F)F)cc(C(F)(F)F)c1 (stereo not drawn) [P2, N-(cyclopropylmethyl)-3-(difluoromethoxy)-N-[1-(2-pyrimidin-2-yl-1,2,4-triazol-3-yl)ethyl]-5-(trifluoromethyl) benzamide]
≥ 80%: percent effect (mortality or growth inhibition) at 200 ppm [1] | percent effect (mortality or growth inhibition) at 200 ppm [2] | mortality at 12 ppm [3] | percent effect (mortality, anti-feeding or growth inhibition) at 12.5 ppm [4] | mortality at 200 ppm [5] | mortality at 200 ppm [6] | percent effect (mortality or growth inhibition) at 200 ppm [7] | percent control (mortality, anti-feedant effect or growth inhibition) at 200 ppm [8] | percent control (mortality, anti-feedant effect or growth inhibition) at 200 ppm [9]

CC(c1ncnn1-c1ncccn1)N(CC1CC1)C(=O)c1cc(OC(F)(F)F)cc(C(F)(F)F)c1 (stereo not drawn) [P4, N-(cyclopropylmethyl)-N-[1-(2-pyrimidin-2-yl-1,2,4-triazol-3-yl)ethyl]-3-(trifluoromethoxy)-5-(trifluoromethyl) benzamide]
≥ 80%: percent effect (mortality or growth inhibition) at 200 ppm [1] | percent effect (mortality or growth inhibition) at 200 ppm [2] | mortality at 12 ppm [3] | mortality at 200 ppm [5] | percent effect (mortality or growth inhibition) at 200 ppm [7] | percent control (mortality, anti-feedant effect or growth inhibition) at 200 ppm [8] | percent control (mortality, anti-feedant effect or growth inhibition) at 200 ppm [9]

CC(c1ncnn1-c1ncccn1)N(CC1CC1)C(=O)c1cc(SC(F)(F)F)cc(C(F)(F)F)c1 (stereo not drawn) [P5, N-(cyclopropylmethyl)-N-[1-(2-pyrimidin-2-yl-1,2,4-triazol-3-yl)ethyl]-3-(trifluoromethyl)-5-(trifluoromethylsulfanyl) benzamide]
≥ 80%: percent effect (mortality or growth inhibition) at 200 ppm [1] | percent effect (mortality or growth inhibition) at 200 ppm [2] | mortality at 12 ppm [3] | percent effect (mortality, anti-feeding or growth inhibition) at 12.5 ppm [4] | mortality at 200 ppm [6] | percent effect (mortality or growth inhibition) at 200 ppm [7] | percent control (mortality, anti-feedant effect or growth inhibition) at 200 ppm [8] | percent control (mortality, anti-feedant effect or growth inhibition) at 200 ppm [9]

CC(NC(=O)c1cc(OC(F)F)cc(C(F)(F)F)c1)c1ncnn1-c1ncccn1 (stereo not drawn) [P8, 3-(difluoromethoxy)-N-[1-(2-pyrimidin-2-yl-1,2,4-triazol-3-yl)ethyl]-5-(trifluoromethyl) benzamide]
≥ 80%: percent effect (mortality or growth inhibition) at 200 ppm [1] | percent effect (mortality or growth inhibition) at 200 ppm [2] | mortality at 12 ppm [3] | percent effect (mortality, anti-feeding or growth inhibition) at 12.5 ppm [4] | mortality at 200 ppm [5] | mortality at 200 ppm [6] | percent effect (mortality or growth inhibition) at 200 ppm [7] | percent control (mortality, anti-feedant effect or growth inhibition) at 200 ppm [9]

CC(NC(=O)c1cc(OCC(F)(F)F)cc(C(F)(F)F)c1)c1ncnn1-c1ncccc1F (stereo not drawn) [P14, N-[1-[2-(3-fluoro-2-pyridyl)-1,2,4-triazol-3-yl]ethyl]-3-(2,2,2-trifluoroethoxy)-5-(trifluoromethyl) benzamide]
≥ 80%: percent effect (mortality or growth inhibition) at 200 ppm [1] | percent effect (mortality or growth inhibition) at 200 ppm [2] | mortality at 500 ppm [10] | mortality at 50 ppm [11] | percent effect (mortality or growth inhibition) at 200 ppm [7] | percent control (mortality, anti-feedant effect or growth inhibition) at 200 ppm [9]

CC(c1ncnn1-c1ncccn1)N(CC1CC1)C(=O)c1cc(SC(F)F)cc(C(F)(F)F)c1 (stereo not drawn) [P18, N-(cyclopropylmethyl)-3-(difluoromethylsulfanyl)-N-[1-(2-pyrimidin-2-yl-1,2,4-triazol-3-yl)ethyl]-5-(trifluoromethyl) benzamide]
≥ 80%: percent effect (mortality or growth inhibition) at 200 ppm [1] | percent effect (mortality or growth inhibition) at 200 ppm [2] | mortality at 12 ppm [3] | mortality at 200 ppm [5] | mortality at 200 ppm [6] | mortality at 500 ppm [10] | mortality at 50 ppm [11] | percent effect (mortality or growth inhibition) at 200 ppm [7]

CC(NC(=O)c1cc(OC(F)(F)F)cc(C(F)(F)F)c1)c1ncnn1-c1ncccn1 (stereo not drawn) [P19, N-[1-(2-pyrimidin-2-yl-1,2,4-triazol-3-yl)ethyl]-3-(trifluoromethoxy)-5-(trifluoromethyl) benzamide]
≥ 80%: percent effect (mortality or growth inhibition) at 200 ppm [1] | percent effect (mortality or growth inhibition) at 200 ppm [2] | mortality at 12 ppm [3] | mortality at 200 ppm [5] | mortality at 500 ppm [10] | mortality at 50 ppm [11] | percent effect (mortality or growth inhibition) at 200 ppm [7] | percent control (mortality, anti-feedant effect or growth inhibition) at 200 ppm [8] | percent control (mortality, anti-feedant effect or growth inhibition) at 200 ppm [9]

CC(NC(=O)c1cc(OCC(F)F)cc(C(F)(F)F)c1)c1ncnn1-c1ncccn1 (stereo not drawn) [P20, 3-(2,2-difluoroethoxy)-N-[1-(2-pyrimidin-2-yl-1,2,4-triazol-3-yl)ethyl]-5-(trifluoromethyl) benzamide]
≥ 80%: percent effect (mortality or growth inhibition) at 200 ppm [1] | mortality at 12 ppm [3] | mortality at 200 ppm [5] | mortality at 500 ppm [10] | mortality at 50 ppm [11] | percent effect (mortality or growth inhibition) at 200 ppm [7] | percent control (mortality, anti-feedant effect or growth inhibition) at 200 ppm [8] | percent control (mortality, anti-feedant effect or growth inhibition) at 200 ppm [9]
